Measured values: US20200187527A1, “METHODS TO INCREASE SILAGE QUALITY IN CROPS” (Valent BioSciences LLC, priority 2013, published 2020)

Tests used:
[1] = tested on: corn; experiment: Example 1 field trial: corn silage quality after foliar RyzUp Smartgrass at V4; type: in vivo, Zea mays (corn); conditions: vs untreated Control; 3.2 g GA3/acre (8 g/ha) at V4
Description: (§1) Field trials were conducted at various locations. Portions of the field were treated with RyzUp® Smartgrass (40% (w/v) GA3 (available from Valent BioSciences Corporation), while other parts of the field were not treated. RyzUp® Smartgrass applications were limited to applications between V3 and V6, with spray volumes for foliar applications ranging from 10-25 gallons/acre.
(§2) Trials were harvested using commercial equipment at standard timings for corn silage. Both RyzUp® Smartgrass and untreated areas of the field were harvested separately in order to obtain biomass yield (ton/acre). Subsequently, the harvested plant material was used for producing silage.
(§3) Representative samples were taken for subsequent analysis. Forage was analyzed by standard methods to determine quality parameters including dry matter, crude protein, Acid Detergent Fiber (ADF), Neutral Detergent Fiber (NDF), and starch data. Calculations were included for moisture, adjusted crude protein, Total Digestible Nutrients (TDN), Net Energy for Lactation (NEL), Net Energy for Gain (NEG) and protein solubility. This information was then entered into the MILK 2006 University of Wisconsin Corn Silage evaluation system. Calculations of the milk production, energy content and digestibility per ton of corn biomass were carried out using a calculation method described in the following references: Schwab, E. C., and R. D. Shaver. (2001); b) Schwab, E C et al. (2003); and c) Undersander, D J et al., (1993)
Modern corn hybrid varieties were grown in a field trial. RyzUp® Smartgrass (40% GA3) was applied at V4 growth stage at a rate of 3.2 g GA^3/acre (8 g/ha). In this trial, silage quality data were analyzed for each variety and the means were used to calculate milk production (Table 1). Percent moisture, crude protein, ADF and NDF were decreased while TDN, starch, and milk production were increased.

[2] = tested on: corn; experiment: Example 2 field trial: corn silage quality after RyzUp Smartgrass at V5 under drought stress; type: in vivo, Zea mays (corn); conditions: vs untreated Control, 6.4 g GA3/acre (16 g/ha) at V5
Description: as §1, §2, §3
Corn grown in a field trial was treated at the V5 stage with RyzUp® Smartgrass (GA3 (w/v) 40%) at a rate of 6.4 g GA^3/acre (16 g/ha). Treatments were made in a spray volume of 15 gallons of water per acre with added surfactant. The overall conditions of this trial were drought stress both before and following application.

[3] = tested on: alfalfa; conditions: GA3 applications; cited from earlier work
[4] = tested on: smooth bromegrass; conditions: GA3 applications; cited from earlier work

C=C1C[C@]23C[C@@]1(O)CC[C@H]2[C@@]12C=C[C@H](O)[C@@](C)(C(=O)O1)[C@H]2[C@@H]3C(=O)O [GA3, gibberellin 3]
% NDF, Percent Difference [1]: −2.7%
% Starch, Percent Difference [1]: +16.7%
% TDN, Percent Difference [1]: +1.2%
Milk (lbs/t), Percent Difference [1]: +2.6%
% NDF, Percent Difference [2]: −17.8%
% Starch, Percent Difference [2]: +55.4%
% TDN, Percent Difference [2]: +8%
dry weight [3]: dose-dependent increase
growth [3]: dose-dependent increase
in vitro digestible dry matter (IVDDM) [3]: decreased
dry weight [4]: dose-dependent increase
growth [4]: dose-dependent increase
in vitro digestible dry matter (IVDDM) [4]: decreased
